Laboratory results reported in PMC10224004, “Modulation of Distribution and Diffusion through the Lipophilic Membrane with Cyclodextrins Exemplified by a Model Pyridinecarboxamide Derivative” (Pharmaceutics, 2023).
“And” between values parts separate entries of the source, which are not always exact repeats. Equal entries are not always repeated.

What was measured:
[1] = Thermodynamic functions of the hypothetical n-hexane → 1-octanol transferring; assay type: physicochemical
Procedure: The apparent dissolution Gibbs energies ( ΔGsol ) and entropies ( ΔSsol ) were calculated at a standard temperature of 298.2 K and 310.2 K:(4) ΔGsol298.2/310.2=−RT(lnX2298.2/310.2) (5) ΔGsol298.2/310.2=ΔHsol0−TΔSsol298.2/310.2 where R is the universal gas constant.
The following conclusions can be derived from Table 3. The dissolution process is more favorable in 1-octanol as compared to n-hexane. In both solvents it is determined by the enthalpy, but the difference between the enthalpy and entropy contributions is not essential (especially in 1-octanol). The greater positive enthalpy term is a driving force of the unfavorable dissolution processes in these two solvents. A more than two-fold difference ΔHsol > TΔSsol exists in n-hexane, and a favorable positive entropy value is not enough to overlap the enthalpy one. From the dissolution thermodynamic functions, the hypothetical transfer n-hexane→1-octanol simulating the blood-brain penetration can be disclosed. As follows from Table 3, the transferring is favorable (negative ΔGtr value), in that the lower temperature facilitates the process. The hypothetical transition from n-hexane to 1-octanol is driven and determined by the negative enthalpy (~80%). A small negative entropy contribution— TΔStr indicates some ordering of the system upon the movement of the IPN molecules from n-hexane to 1-octanol.

[2] = Shake-flask distribution in the 1-octanol/buffer pH 7.4 system; assay type: physicochemical
Procedure: (§1) Apparent distribution coefficients of the compounds were measured in two systems: 1-octanol/buffer pH 7.4 and n-hexane/buffer pH 7.4 by the shake-flask technique at 310.2 ± 0.5 K in the absence (for IPN, INZ and iNAM) and in the presence of cyclodextrins (HP-β-CD and M-β-CD) in the aqueous phase (for IPN only). The concentrations of cyclodextrins were: 0.0115 M, 0.025 M and 0.035 M. The experiments were carried out according to the literature. In brief, the following experimental procedure was performed. Aqueous buffer pH 7.4 and organic solvent (1-octanol or n-hexane) were mixed during 48 h to obtain mutually saturated phases. The stock solutions containing the drug were prepared in buffer pH 7.4 saturated with the organic solvent. Both aliquots of the aqueous stock solution and organic solvent were placed in screwed glass vials and mixed at 310.2 ± 0.5 K during 3 days. The concentrations of the stock solutions were approximately 6.0 × 10^−3 M for both systems. The volumes of the phases were 3:3 in the 1-octanol/buffer pH 7.4 systems and 6:3 and 10:3 in the n-hexane/buffer pH 7.4 systems, without and with cyclodextrins, respectively. After mixing, the equilibrium was achieved; the vials were maintained at 310.2 ± 0.5 K, and the phases were separated from each other. The drug concentrations were determined using spectrophotometer (Cary-50 Varian, Palo Alto, CA, USA, Software Version 3.00 (339)). The experiments were carried out at least four-fold with an accuracy of 2–4%. The distribution coefficients were calculated using the following equation:(6) DappOrg/buf=C2Org/buf⋅V^buf/Org/C2buf/Org⋅V^Org/buf where DappOrg/buf is the distribution coefficient calculated from the concentrations of the compounds expressed in molar scale, C2Org/buf and C2buf/Org are the molar concentrations of the drug in the mutually saturated organic solvent/buffer and buffer/organic solvent phases, respectively, and V^buf/Org and V^Org/buf are the volumes of the saturated buffer and organic solvent phases, respectively. In addition, the ΔlogD parameters were estimated taking into account the distribution coefficients both in the 1-octanol/buffer pH 7.4 and n-hexane/buffer H 7.4 systems. As Abraham et al. stated, the difference between the distribution parameters in these systems ( ΔlogD ) can be applied to assess the specific interactions including a hydrogen-bonding impact to the drug transport properties and can be calculated as follows:(7) ΔlogD=logDappoct/buf−logDapphex/buf

[3] = Shake-flask distribution in the n-hexane/buffer pH 7.4 system; assay type: physicochemical
Procedure: as §1

[4] = Association constant of IPN with cyclodextrin by phase-distribution method; assay type: binding; details: 310.2 K
Procedure: The association constants (KC) of IPN with cyclodextrins were determined by a partition coefficient (phase-distribution) method. Possible partition of CDs to the 1-octanol or n-hexane phases was assumed to be negligible since both cyclodextrins used in this study have high aqueous solubility (>600 mg∙mL^−1). The KC values of the complexes between the drug and each CD were calculated assuming that in the presence of CD the distribution coefficient ( DappOrg/(buf+CD) ) is defined as:(8) DappOrg/(buf+CD)=C2Org/C2buf(drug)+C2buf(drug•CD) where C2buf(drug) and C2buf(drug•CD) are the concentrations of the drug and drug complex with CD in the aqueous phase. The following equation was applied:(9) DappOrg/(buf+CD)/DappOrg/buf=1+KC⋅CCD where DappOrg/buf and DappOrg/(buf+CD) are the distribution coefficients of a compound in the absence and in the presence of CD in the aqueous phase, respectively. Similarly to the phase-solubility method of the stability constants determination, but bearing in mind an opposite trends in solubility and organic solvent/water partition (the higher the solubility, the lower the distribution coefficient), the following dependence was plotted to obtain the association constant (KC) and the stoichiometric ratio of the complex (α):(10) log(DappOrg/buf−DappOrg/(buf+CD)/DappOrg/buf)=log(KC)+α⋅log(CCD) where CCD is the concentration of cyclodextrin in the aqueous phase of the distribution system and the y-intercept produces log(KC).
To approve the validity of the distribution results interpretation we used the distribution coefficients at different CDs concentrations for the determination of the association constants of IPN with the studied cyclodextrins. As shown by Másson et al. for hydrophilic drugs (a case of IPN), this method can be successfully used for the simultaneous determination of the association constant with cyclodextrins and partition coefficient. The association constants (KC) of IPN with HP-β-CD and M-β-CD were determined according to the phase-distribution method using Equations (8)–(10). To this end, the plots of the dependences (Equation (10)) were constructed and are illustrated in Figure 6.

[5] = 310.2 K, cyclodextrin in buffer phase as in the label
[6] = V(oct):V(buf)= 3:3, molar concentration × 10^3
[7] = from 1-Octanol/Buffer pH 7.4 System
[8] = from n-hexane/buffer pH 7.4 system

CC(C)NNC(=O)c1ccncc1 [IPN, N′-isopropyl isonicotinic hydrazide]
TΔStr298.2 ([1]; 298.2 K): -0.884 kcal/mol | ΔGtr298.2 ([1]; 298.2 K): -3.78 kcal/mol | ζHtr ([1]; 298.2 K (first value of cell)): 84.1% | ΔHtr298.2/310.2 ([1]; 298.2 K and 310.2 K): -4.66 kcal/mol | TΔStr310.2 ([1]; 310.2 K): -0.932 kcal/mol | ΔGtr310.2 ([1]; 310.2 K): -3.73 kcal/mol | ζHtr ([1]; 310.2 K (second value of cell)): 83.3% | Dappoct/buff [2, 5]: 2.651 ± 0.093 | logDappoct/buff [2, 5]: 0.423 ± 0.015 and 0.423 | Molar concentration C2 buf/oct ∙10^3 (aqueous phase) [2, 6]: 1.69 ∙10^3 | Molar concentration C2 oct/buf ∙10^3 (organic phase) [2, 6]: 4.48 ∙10^3 | logDapphex/buff [3, 5]: −2.907 | Dapphex/buff ·10^4 ([3]; 310.2 K, value = D·10^4, cyclodextrin in buffer phase as in the label): 12.400 ± 0.191 ·10^4 | Molar concentration C2 buf/hex ∙10^3 (aqueous phase) ([3]; V(hex):V(buf)= 6:3 without and 10:3 with cyclodextrins, molar concentration × 10^3): 6.46 ∙10^3 | Molar concentration C2 hex/buf ∙10^5 (organic phase) ([3]; V(hex):V(buf)= 6:3 without and 10:3 with cyclodextrins, molar concentration × 10^5): 1.60 ∙10^5 | Association constant KC of IPN complex with HP-β-CD [4, 7]: 0.899 ± 0.022 | Association constant KC of IPN complex with M-β-CD [4, 7]: 0.479 ± 0.109 | α (parameter indicating the complex stoichiometry), IPN with HP-β-CD [4, 7]: 1.004 ± 0.014 | α (parameter indicating the complex stoichiometry), IPN with M-β-CD [4, 7]: 1.000 ± 0.065 | Association constant KC of IPN complex with HP-β-CD [4, 8]: 1.536 ± 0.128 | Association constant KC of IPN complex with M-β-CD [4, 8]: 1.311 ± 0.241 | α (parameter indicating the complex stoichiometry), IPN with HP-β-CD [4, 8]: 1.087 ± 0.076 | α (parameter indicating the complex stoichiometry), IPN with M-β-CD [4, 8]: 1.057 ± 0.143
